Test results as given in US20240174603A1 (Rappta Therapeutics Oy, priority 2021, published 2024).

test system: LNCaP cells; assay: LNCaP cell viability assay (MTS); format: cell-based; conditions: Homo sapiens, LNCaP, 48 h, LNCaP cell line
Experimental: LNCaP cell line was used for the cell viability assay. LNCaP cells were plated in 96-well plates at a density of 5000 cells per well. After 24 hours of plating, the cells were treated with increasing doses of compound (e.g., compounds 1-269) ranging from 1 μM to 80 μM. Relative cell numbers were analyzed after 48 hours using 3-(4,5-dimethylthiazol-2-yl)-5-(3-carboxymethoxyphenyl)-2-(4-sulfophenyl)-2H-tetrazolium (MTS) assay (Promega) according to the manufacturer's instructions.
The cell viability data was analyzed with GraphPad Prism software. The values were log transformed and analyzed with non-linear regression (curve-fit) using log(inhibitor) vs. response-variable slope (four parameters) and constraining the bottom to equal zero. Unless otherwise indicated, the GI50 values provided in Table 113 correspond to the LNCaP cell viability assays.

Row | SMILES | GI50
1 | CN(C)CC(NS(=O)(=O)c1ccc(-c2ccccc2)cc1)c1ccc(Cl)c(Cl)c1 (single isomer, unassigned) [Compound 195, N-(1-(3,4-dichlorophenyl)-2-(dimethylamino)ethyl)-[1,1′-biphenyl]-4-sulfonamide] | 11.9 µM
2 | O=S(=O)(NCCC(c1ccccc1)C(F)(F)F)c1ccc(OC(F)(F)F)cc1 (centres unmarked) [Compound 51, N-(4,4,4-trifluoro-3-phenylbutyl)-4-(trifluoromethoxy)benzenesulfonamide] | 55 µM
3 | O=S(=O)(NC(c1ccc(F)cc1)C1CCCO1)c1ccc(OC(F)(F)F)cc1 (centres unmarked) [Compound 101, N-((4-fluorophenyl)(tetrahydrofuran-2-yl)methyl)-4-(trifluoromethoxy)benzenesulfonamide] | 33 µM
4 | CN(C)CC(NS(=O)(=O)C1CCCCC1)c1ccc(Cl)c(Cl)c1 (centres unmarked) [Compound 135, N-(1-(3,4-dichlorophenyl)-2-(dimethylamino)ethyl)cyclohexanesulfonamide] | 57.3 µM
5 | CN1CCN(CC(NS(=O)(=O)c2ccc(Oc3ccc(C(F)(F)F)cc3)cc2)c2ccc(Cl)c(Cl)c2)CC1 (centres unmarked) [Compound 233, N-(1-(3,4-dichlorophenyl)-2-(4-methylpiperazin-1-yl)ethyl)-4-(4-(trifluoromethyl)phenoxy)benzenesulfonamide] | 6.19 µM
6 | CCCCCc1ccc(S(=O)(=O)NC(CN(C)C)c2ccc(Cl)c(Cl)c2)cc1 (centres unmarked) [Compound 215, N-(1-(3,4-dichlorophenyl)-2-(dimethylamino)ethyl)-4-pentylbenzenesulfonamide] | 7.5 µM
7 | CN(C)CC(NS(=N)(=O)c1ccc(OC(F)(F)F)cc1)c1ccc(Cl)c(Cl)c1 (single isomer, unassigned) [Compound 165a, N-(1-(3,4-dichlorophenyl)-2-(dimethylamino)ethyl)-4-(trifluoromethoxy)benzenesulfonimidamide] | 46.3 µM
8 | CN(C)CC(NS(=O)(=O)c1cc(F)cc(F)c1)c1ccc(Cl)c(Cl)c1 (centres unmarked) [Compound 134, N-(1-(3,4-dichlorophenyl)-2-(dimethylamino)ethyl)-3,5-difluorobenzenesulfonamide] | 75.6 µM
9 | CN(C)CC(NS(=O)(=O)/C=C/c1ccccc1)c1ccc(Cl)c(Cl)c1 (centres unmarked) [Compound 174, (E)-N-(1-(3,4-dichlorophenyl)-2-(dimethylamino)ethyl)-2-phenylethene-1-sulfonamide] | 30.9 µM
10 | O=S(=O)(NC(CN1CCNCC1)c1ccc(F)cc1)c1ccc(OC(F)(F)F)cc1 (centres unmarked) [Compound 264, N-(1-(4-fluorophenyl)-2-(piperazin-1-yl)ethyl)-4-(trifluoromethoxy)benzenesulfonamide] | 43.1 µM
11 | CC(C)c1ccc(C(CC(=O)O)NS(=O)(=O)c2ccc(OC(F)(F)F)cc2)cc1 (centres unmarked) [Compound 113, 3-(4-isopropylphenyl)-3-((4-(trifluoromethoxy)phenyl)sulfonamido)propanoic acid] | 66 µM
12 | O=S(=O)(NC(c1cc(Cl)cc(Cl)c1)C1CCCCC1)c1ccc(OC(F)(F)F)cc1 (single isomer, unassigned) [Compound 140, N-(cyclohexyl(3,5-dichlorophenyl)methyl)-4-(trifluoromethoxy)benzenesulfonamide] | 19 µM
13 | COC(=O)C[C@@H](Cc1ccccc1)NS(=O)(=O)c1ccc(OC(F)(F)F)cc1 [Compound 6, Methyl (R)-4-phenyl-3-((4-(trifluoromethoxy)phenyl)sulfonamido)butanoate] | 61.1 µM
14 | CN(C)CC(NS(=O)(=O)c1cccc(OC(F)(F)F)c1)c1ccc(Cl)c(Cl)c1 (centres unmarked) [Compound 128, N-(1-(3,4-dichlorophenyl)-2-(dimethylamino)ethyl)-3-(trifluoromethoxy)benzenesulfonamide] | 21.1 µM
15 | CCCc1ccc(S(=O)(=O)NC(CN(C)C)c2ccc(Cl)c(Cl)c2)cc1 (centres unmarked) [Compound 137, N-(1-(3,4-dichlorophenyl)-2-(dimethylamino)ethyl)-4-propylbenzenesulfonamide] | 12.3 µM
16 | CN(C)CC(NS(=O)(=O)c1ccc(OC(F)(F)F)c(Cl)c1)c1cccc(C(F)(F)F)c1 (centres unmarked) [Compound 191, 3-chloro-N-(2-(dimethylamino)-1-(3-(trifluoromethyl)phenyl)ethyl)-4-(trifluoromethoxy)benzenesulfonamide] | 16.5 µM
17 | CCc1ccc(C(NS(=O)(=O)c2ccc(OC(F)(F)F)cc2)C(C)(C)C)o1 (centres unmarked) [Compound 17, N-(1-(5-ethylfuran-2-yl)-2,2-dimethylpropyl)-4-(trifluoromethoxy)benzenesulfonamide] | 55.6 µM
18 | CNS(=O)(=NC(CN(C)C)c1ccc(Cl)c(Cl)c1)c1ccc(OC(F)(F)F)cc1 (centres unmarked) [Compound 127, N′-(1-(3,4-dichlorophenyl)-2-(dimethylamino)ethyl)-N-methyl-4-(trifluoromethoxy)benzenesulfonimidamide] | 51.9 µM
19 | O=S(=O)(NCc1ccccc1COC1CCCCC1)c1ccc(OC(F)(F)F)cc1 [Compound 59, N-(2-((cyclohexyloxy)methyl)benzyl)-4-(trifluoromethoxy)benzenesulfonamide] | 23 µM
20 | O=S(=O)(NCCCOCCOCc1ccccc1)c1ccc(OC(F)(F)F)cc1 [Compound 89, N-(3-(2-(benzyloxy)ethoxy)propyl)-4-(trifluoromethoxy)benzenesulfonamide] | 48 µM
21 | O=S(=O)(N[C@@H](CO)c1ccc(Cl)c(Cl)c1)c1ccc(OC(F)(F)F)cc1 [Compound 121, (R)—N-(1-(3,4-dichlorophenyl)-2-hydroxyethyl)-4-(trifluoromethoxy)benzenesulfonamide] | 40.2 µM
22 | CN(C)CC(NS(=O)(=O)CCc1ccccc1)c1ccc(Cl)c(Cl)c1 (centres unmarked) [Compound 136, N-(1-(3,4-dichlorophenyl)-2-(dimethylamino)ethyl)-2-phenylethane-1-sulfonamide] | 24.3 µM
23 | CN(C)CC(NS(=O)(=O)c1ccc(OC(F)(F)F)c(Cl)c1)c1ccc(Cl)c(Cl)c1 (single isomer, unassigned) [Compound 201, 3-chloro-N-(1-(3,4-dichlorophenyl)-2-(dimethylamino)ethyl)-4-(trifluoromethoxy)benzenesulfonamide] | 22.8 µM
24 | CN(C)CC(NS(=O)(=O)c1ccc(OC(F)(F)F)cc1)c1ccc(Cl)c(Cl)c1 (centres unmarked) [Compound 147, N-(1-(3,4-dichlorophenyl)-2-(dimethylamino)ethyl)-4-(trifluoromethoxy)benzenesulfonamide] | 19.5 µM
25 | O=S(=O)(NCC1CN(Cc2ccccc2)CC12CCC2)c1ccc(OC(F)(F)F)cc1 (centres unmarked) [Compound 91, N-((6-benzyl-6-azaspiro[3.4]octan-8-yl)methyl)-4-(trifluoromethoxy)benzenesulfonamide] | 28 µM
26 | CC(C)(C)Oc1ccccc1CNS(=O)(=O)c1ccc(OC(F)(F)F)cc1 [Compound 78, N-(2-(tert-butoxy)benzyl)-4-(trifluoromethoxy)benzenesulfonamide] | 46 µM

Next, values leading:

Row | GI50 | SMILES
27 | 39 µM | O=S(=O)(NCC1CCCCC1c1ccccc1)c1ccc(OC(F)(F)F)cc1 (centres unmarked) [Compound 49, N-((2-phenylcyclohexyl)methyl)-4-(trifluoromethoxy)benzenesulfonamide]
28 | 70 µM | CCOC(=O)C(CC(C)CC)NS(=O)(=O)c1ccc(OC(F)(F)F)cc1 (centres unmarked) [Compound 47, Ethyl 4-methyl-2-((4-(trifluoromethoxy)phenyl)sulfonamido)hexanoate]
29 | 70.6 µM | COC(=O)c1cc(S(=O)(=O)NC(CN(C)C)c2ccc(Cl)c(Cl)c2)ccc1OC(F)(F)F (centres unmarked) [Compound 226, methyl 5-(N-(1-(3,4-dichlorophenyl)-2-(dimethylamino)ethyl)sulfamoyl)-2-(trifluoromethoxy)benzoate]
30 | 60 µM | CC(C)CN(CCNS(=O)(=O)c1ccc(OC(F)(F)F)cc1)CC(C)C [Compound 63, N-(2-(diisobutylamino)ethyl)-4-(trifluoromethoxy)benzenesulfonamide]
31 | 75.6 µM | CCOC(=O)CC(NS(=O)(=O)c1ccc(OC(F)(F)F)cc1)c1ccc(OCC)cc1 (centres unmarked) [Compound 25]
32 | 49.7 µM | O=S(=O)(NCc1ccccc1N1CCCC1)c1ccc(OC(F)(F)F)cc1 [Compound 30, N-(2-(pyrrolidin-1-yl)benzyl)-4-(trifluoromethoxy)benzenesulfonamide]
33 | 40.3 µM | O=S(=O)(NC[C@H](c1ccc(F)cc1)N1CCNCC1)c1ccc(OC(F)(F)F)cc1 [Compound 265, (S)—N-(2-(4-fluorophenyl)-2-(piperazin-1-yl)ethyl)-4-(trifluoromethoxy)benzenesulfonamide]
34 | 42.5 µM | O=S(=O)(NCC1(c2ccc(Cl)cc2)CCC1)c1ccc(OC(F)(F)F)cc1 [Compound 229, N-((1-(4-chlorophenyl)cyclobutyl)methyl)-4-(trifluoromethoxy)benzenesulfonamide]
35 | 61 µM | O=S(=O)(NCCN1c2ccccc2NS1(=O)=O)c1ccc(OC(F)(F)F)cc1 [Compound 100, N-(2-(2,2-dioxidobenzo[c] [1,2,5]thiadiazol-1(3H)-yl)ethyl)-4-(trifluoromethoxy)benzenesulfonamide]
36 | 23 µM | CC1CCN(c2ccccc2CNS(=O)(=O)c2ccc(OC(F)(F)F)cc2)CC1 [Compound 87, N-(2-(4-methylpiperidin-1-yl)benzyl)-4-(trifluoromethoxy)benzenesulfonamide]
37 | 8.18 µM | CN(C)CC(NS(=O)(=O)c1ccc(C2=CCOCC2)cc1)c1ccc(Cl)c(Cl)c1 (centres unmarked) [Compound 216, N-(1-(3,4-dichlorophenyl)-2-(dimethylamino)ethyl)-4-(3,6-dihydro-2H-pyran-4-yl)benzenesulfonamide]

same assay, conditions: LNCaP cell line, 48 hours

Row | GI50 | SMILES
38 | 12.5 µM | CN(C)CC(NS(=O)(=O)c1cccc(-c2ccccc2)c1)c1ccc(Cl)c(Cl)c1 (single isomer, unassigned) [Compound 198, N-(1-(3,4-dichlorophenyl)-2-(dimethylamino)ethyl)-[1,1′-biphenyl]-3-sulfonamide]
